For series [1], the system named is HIV-1 IIIB (T-tropic, CXCR4 utilizing). As to the kind of experiment: HOS HIV-1 infectivity assay. The class given is cell-based. A digest of the protocol: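 Cytotoxicity was measured by CellTiter-Glo in virus-free cultures, while antiviral activity used Steady-Glo luciferase after 96 h infection with T-tropic IIIB virus (~2 million RLU/well). Both used HOS hCXCR4/hCCR5/hCD4/pHIV-LTR-luciferase cells in 2% FCS DMEM, with compound added 1 h before virus.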

Series [2] is described as follows: Compound cytotoxicity in the absence of virus addition (CellTiter-Glo). Conditions: human; non-infected HOS cultures; read-out: Cytotox (pIC50) (converted). The class given is cell-based. As to the method:
Compounds were profiled against two HIV-1 viruses, the M-tropic (CCR5 utilizing) Ba-L strain and the T-tropic (CXCR4 utilizing) IIIB strain. Both viruses were propagated in human peripheral blood lymphocytes. Compounds were tested for there ability to block infection of the HOS cell line (expressing hCXCR4/hCCR5/hCD4/pHIV-LTR-luciferase) by either HIV-1 Ba-L or HIV-1 IIIB. Compound cytotoxicity was also examined in the absence of virus addition.
HOS cells (expressing hCXCR4/hCCR5/hCD4/pHIV-LTR-luciferase) were harvested and diluted in Dulbeccos modified Eagles media supplemented with 2% FCS and non-essential amino acid to a concentration of 60,000 cells/ml. The cells were plated into 96-well plates (100 ul per well) and the plates were placed in a tissue culture incubator (37° C.; 5% CO2/95% air) for a period of 24 h.
Subsequently, 50 ul of the desired drug solution (4 times the final concentration) was added to each well and the plates were returned to the tissue culture incubator (37° C.; 5% CO2/95% air) for 1 h. Following this incubation 50 ul of diluted virus was added to each well (approximately 2 million RLU per well of virus). The plates were returned to the tissue culture incubator (37° C.; 5% CO2/95% air) and were incubated for a further 96 h.
Following this incubation the endpoint for the virally infected cultures was quantified following addition of Steady-Glo Luciferase assay system reagent (Promega, Madison, Wis.). Cell viability or non-infected cultures was measured using a CellTiter-Glo luminescent cell viability assay system (Promega, Madison, Wis.). All luminescent readouts are performed on a Topcount luminescence detector (Packard, Meridien, Conn.).
(ATP-based viability assays read luminescence as a measure of living cells.)

The mark [3] stands for this setting: Human immunodeficiency virus 1, IIIB, as determined by the infectivity assay, strain not stated in Table 2, read-out: Activity Level.

Like-named read-outs stand apart in the source and are kept apart here.

Regarding `CC(C)CN1CCN(c2cccc3[nH]c(CN(C)C4CCCc5cccnc54)nc23)CC1` (centres unmarked) [Example 36, N-methyl-N-({4-[4-(2-methylpropyl)-1-piperazinyl]-1H-benzimidazol-2-yl}methyl)-5,6,7,8-tetrahydro-8-quinolinamine], the IC50 is less than 100 nM in series [1] (setting [3]) and 50 nM in series [1] (Human immunodeficiency virus 1, HIV-1 IIIB, HOS cells, 96 h, luciferase readout, read-out: HOS (3B)). In series [2], the IC50 at 96 h is more than 100000 nM.

As for `CN1CCN(c2cccc3nc(CN(CC4CC4)C4CCCc5cccnc54)n(C)c23)CC1` (centres unmarked) [Example 156, N-(Cyclopropylmethyl)-N-{[1-methyl-7-(4-methyl-1-piperazinyl)-1H-benzimidazol-2-yl]methyl}-5,6,7,8-tetrahydro-8-quinolinamine], in series [1] (setting [3]), the IC50 was less than 100 nM. Same read-out and setting: then `CN(Cc1nc2cccc(N3CCNCC3)c2n1C)[C@H]1CCCc2cccnc21` [Example 159, (8S)—N-methyl-N-{[1-methyl-7-(1-piperazinyl)-1H-benzimidazol-2-yl]methyl}-5,6,7,8-tetrahydro-8-quinolinamine], with less than 100 nM; and `CN1CCN(c2cccc3nc(CN(C)[C@H]4CCCc5cccnc54)n(C)c23)CC1` [Example 160, (8S)—N-Methyl-N-{[1-methyl-7-(4-methyl-1-piperazinyl)-1H-benzimidazol-2-yl]methyl}-5,6,7,8-tetrahydro-8-quinolinamine], with less than 100 nM; and `CN1CCN(c2cccc3nc(CN(C)[C@@H]4CCCc5cccnc54)n(C)c23)CC1` [Example 161, (8R)—N-Methyl-N-{[1-methyl-7-(4-methyl-1-piperazinyl)-1H-benzimidazol-2-yl]methyl}-5,6,7,8-tetrahydro-8-quinolinamine], with less than 100 nM. Still for that read-out and setting: under `CCn1c(CN(C)[C@H]2CCCc3cccnc32)nc2cccc(N3CCN(C)CC3)c21` [Example 164, (8S)—N-{[1-ethyl-7-(4-methyl-1-piperazinyl)-1H-benzimidazol-2-yl]methyl}-N-methyl-5,6,7,8-tetrahydro-8-quinolinamine] stands less than 100 nM; under `CCn1c(CN(Cc2ccccc2)[C@H]2CCCc3cccnc32)nc2cccc(N3CCN(C)CC3)c21` [Example 165, (8S)—N-{[1-Ethyl-7-(4-methyl-1-piperazinyl)-1H-benzimidazol-2-yl]methyl}-N-(Phenylmethyl)-5,6,7,8-tetrahydro-8-quinolinamine], less than 100 nM. With `CCN(Cc1nc2cccc(N3CCN(C)CC3)c2n1CC)[C@H]1CCCc2cccnc21` [Example 166, (8S)—N-Ethyl-N-{[1-ethyl-7-(4-methyl-1-piperazinyl)-1H-benzimidazol-2-yl]methyl}-5,6,7,8-tetrahydro-8-quinolinamine], in series [1] (setting [3]), the IC50 is less than 100 nM. Take `CCN(Cc1nc2cccc(N3CCN(C)CC3)c2n1C)[C@H]1CCCc2cccnc21` [Example 167, (8S)—N-Ethyl-N-{[1-methyl-7-(4-methyl-1-piperazinyl)-1H-benzimidazol-2-yl]methyl}-5,6,7,8-tetrahydro-8-quinolinamine]: in series [1] (setting [3]), the IC50 was less than 100 nM. Still for that read-out and setting: under `CCCN(Cc1nc2cccc(N3CCN(C)CC3)c2n1C)[C@H]1CCCc2cccnc21` [Example 168, (8S)—N-{[1-Methyl-7-(4-methyl-1-piperazinyl)-1H-benzimidazol-2-yl]methyl}-N-propyl-5,6,7,8-tetrahydro-8-quinolinamine] stands less than 100 nM; under `CN1CCN(c2cccc3nc(CN(Cc4ccccc4)[C@H]4CCCc5cccnc54)n(C)c23)CC1` [Example 169, (8S)—N-{[1-Methyl-7-(4-methyl-1-piperazinyl)-1H-benzimidazol-2-yl]methyl}-N-(Phenylmethyl)-5,6,7,8-tetrahydro-8-quinolinamine], less than 100 nM.

Consider `CN1CCN(c2c(Cl)ccc3nc(CN(C)C4CCCc5cccnc54)[nH]c23)CC1` (centres unmarked) [Example 170, N-{[5-Chloro-4-(4-methyl-1-piperazinyl)-1H-benzimidazol-2-yl]methyl}-N-methyl-5,6,7,8-tetrahydro-8-quinolinamine], for which, in series [1] (setting [3]), the IC50 was less than 100 nM. On the same count and under the same terms, then `CN1CCN(c2ccc(Cl)c3nc(CN(C)C4CCCc5cccnc54)[nH]c23)CC1` (centres unmarked) [Example 171, N-{[4-Chloro-7-(4-methyl-1-piperazinyl)-1H-benzimidazol-2-yl]methyl}-N-methyl-5,6,7,8-tetrahydro-8-quinolinamine], with less than 100 nM; and `C[C@H](c1nc2c(N3CCN(C)CC3)cccc2[nH]1)N(C)C1CCCc2cccnc21` (stereo partly drawn) [Example 172, N-Methyl-N-{(1R)-1-[4-(4-methyl-1-piperazinyl)-1H-benzimidazol-2-yl]ethyl}-5,6,7,8-tetrahydro-8-quinolinamine], with less than 100 nM; and `CN1CCN(c2cccc3[nH]c([C@H](COCc4ccccc4)N(C)C4CCCc5cccnc54)nc23)CC1` (stereo partly drawn) [Example 176, N-Methyl-N-{(1R)-1-[4-(4-methyl-1-piperazinyl)-1H-benzimidazol-2-yl]-2-[(phenylmethyl)oxy]ethyl}-5,6,7,8-tetrahydro-8-quinolinamine], with less than 100 nM. Same read-out and setting: then `CN1CCN(c2cccc3[nH]c([C@@H](COCc4ccccc4)N(C)C4CCCc5cccnc54)nc23)CC1` (stereo partly drawn) [Example 177, N-Methyl-N-{(1S)-1-[4-(4-methyl-1-piperazinyl)-1H-benzimidazol-2-yl]-2-[(phenylmethyl)oxy]ethyl}-5,6,7,8-tetrahydro-8-quinolinamine], with less than 100 nM. The same measure, in the same setting: under `Cn1c(CN(CCO)[C@H]2CCCc3cccnc32)nc2cccc(N3CCNCC3)c21` [Example 178, 2-{{[1-Methyl-7-(1-piperazinyl)-1H-benzimidazol-2-yl]methyl}[(8S)-5,6,7,8-tetrahydro-8-quinolinyl]amino}ethanol] stands less than 100 nM; under `Cn1c(CN(CCCO)[C@H]2CCCc3cccnc32)nc2cccc(N3CCNCC3)c21` [Example 179, 3-{{[1-Methyl-7-(1-piperazinyl)-1H-benzimidazol-2-yl]methyl}[(8S)-5,6,7,8-tetrahydro-8-quinolinyl]amino-}1-propanol], less than 100 nM. Turning to `CN1CCN(c2cccc3nc(CN(CCO)[C@H]4CCCc5cccnc54)n(C)c23)CC1` [Example 180, 2-{{[1-Methyl-7-(4-methyl-1-piperazinyl)-1H-benzimidazol-2-yl]methyl}[(8S)-5,6,7,8-tetrahydro-8-quinolinyl]amino}ethanol], the IC50 in series [1] (setting [3]) is less than 100 nM. On the same count and under the same terms, under `CN1CCN(c2cccc3nc(CN(CCCO)[C@H]4CCCc5cccnc54)n(C)c23)CC1` [Example 181, 3-{{[1-Methyl-7-(4-methyl-1-piperazinyl)-1H-benzimidazol-2-yl]methyl}[(8S)-5,6,7,8-tetrahydro-8-quinolinyl]amino}-1-propanol] stands less than 100 nM. Still for that read-out and setting: under `CN1CCN(c2cccc3nc(CNC4CCc5cccnc54)[nH]c23)CC1` (centres unmarked) [Example 182, N-{[4-(4-Methyl-1-piperazinyl)-1H-benzimidazol-2-yl]methyl}-6,7-dihydro-5H-cyclopenta[b]pyridin-7-amine] stands 100 to 500 nM; under `CN1CCN(c2cccc3nc(CN(C)C4CCc5cccnc54)[nH]c23)CC1` (centres unmarked) [Example 183, N-Methyl-N-{[4-(4-methyl-1-piperazinyl)-1H-benzimidazol-2-yl]methyl}-6,7-dihydro-5H-cyclopenta[b]pyridin-7-amine], less than 100 nM; under `CN1CCN(c2cccc3nc(CNC4CCCCc5cccnc54)[nH]c23)CC1` (centres unmarked) [Example 184, N-{[4-(4-methyl-1-piperazinyl)-1H-benzimidazol-2-yl]methyl}-6,7,8,9-tetrahydro-5H-cyclohepta[b]pyridin-9-amine], less than 100 nM. Same read-out and setting: then `CN1CCN(c2cccc3nc(CN(C)C4CCCCc5cccnc54)[nH]c23)CC1` (centres unmarked) [Example 185, N-methyl-N-{[4-(4-methyl-1-piperazinyl)-1H-benzimidazol-2-yl]methyl}-6,7,8,9-tetrahydro-5H-cyclohepta[b]pyridin-9-amine], with less than 100 nM.

Values taken from patent US20080045537A1, “Chemical Compounds” (priority 2004, published 2008).
